Numbers after ± are expanded uncertainties.
Settings: 303.16 K, Liquid, Vibrating tube method

Measured: mass density

CCCC(=O)OCC(COC(=O)CCC)(COC(=O)CCC)COC(=O)CCC [pentaerythritol tetrabutyrate]
1047.1 ± 1.3 kg/m3: 7479.9 kPa | 7541.7 kPa | 7566.7 kPa | 7622.5 kPa | 7647.8 kPa | 7673.7 kPa | 7703.6 kPa
1047.3 ± 1.3 kg/m3: 7786.9 kPa | 7813.7 kPa | 7867.9 kPa | 7955 kPa | 7982.8 kPa | 8044.7 kPa | 8073.5 kPa
1047.4 ± 1.3 kg/m3: 8016.1 kPa | 8102.7 kPa | 8222.3 kPa | 8273.3 kPa
1049.1 ± 1.3 kg/m3: 10658 kPa | 10723 kPa | 10820 kPa | 10857 kPa | 10894 kPa
1049.2 ± 1.3 kg/m3: 10789 kPa | 10924 kPa | 10993 kPa
1048.1 ± 1.3 kg/m3: 9078.7 kPa | 9121 kPa | 9172.2 kPa | 9193.2 kPa
1046.9 ± 1.3 kg/m3: 7311.4 kPa | 7343 kPa | 7374.1 kPa
1048 ± 1.3 kg/m3: 8867.8 kPa | 8960.7 kPa | 9027.7 kPa | 9099.8 kPa | 9146.6 kPa
1048.8 ± 1.3 kg/m3: 10100 kPa | 10186 kPa | 10278 kPa | 10399 kPa | 10525 kPa
1049.4 ± 1.3 kg/m3: 11133 kPa
1047.9 ± 1.3 kg/m3: 8716 kPa | 8759.5 kPa | 8783.6 kPa | 8803.1 kPa | 8823.4 kPa | 8847.6 kPa | 8892.1 kPa | 8916.2 kPa | 8936.4 kPa | 8981.7 kPa | 9006.9 kPa | 9053.1 kPa
1048.9 ± 1.3 kg/m3: 10337 kPa | 10432 kPa | 10461 kPa | 10496 kPa | 10560 kPa
1047.7 ± 1.3 kg/m3: 8504.8 kPa | 8527.9 kPa | 8565.8 kPa | 8630.3 kPa
1047.6 ± 1.3 kg/m3: 8245.7 kPa | 8350.8 kPa | 8373.4 kPa | 8547 kPa
1048.6 ± 1.3 kg/m3: 9812.9 kPa | 9953.2 kPa | 9984.1 kPa | 10126 kPa
1048.5 ± 1.3 kg/m3: 9571.3 kPa | 9623.9 kPa | 9680.6 kPa | 9730.4 kPa | 9759.3 kPa | 9783.6 kPa | 9843 kPa | 9898.3 kPa | 9923.1 kPa
1047.8 ± 1.3 kg/m3: 8588.8 kPa | 8607.6 kPa | 8649.3 kPa | 8672.8 kPa | 8693.1 kPa | 8735.5 kPa
1048.4 ± 1.3 kg/m3: 9419 kPa | 9519.7 kPa | 9547.7 kPa | 9705 kPa | 9868 kPa
1046.6 ± 1.3 kg/m3: 6790.5 kPa | 6849.6 kPa | 6876.7 kPa | 6936.8 kPa
1048.2 ± 1.3 kg/m3: 9244.7 kPa | 9266.6 kPa | 9343.1 kPa | 9442.1 kPa
1048.7 ± 1.3 kg/m3: 10010 kPa | 10041 kPa | 10067 kPa | 10159 kPa | 10218 kPa | 10245 kPa | 10305 kPa | 10371 kPa
1046.7 ± 1.3 kg/m3: 6817.3 kPa | 6909 kPa | 6965.3 kPa | 6993.5 kPa
1047 ± 1.3 kg/m3: 7274.1 kPa | 7412.9 kPa | 7446.2 kPa | 7515.1 kPa
1047.2 ± 1.3 kg/m3: 7596.6 kPa | 7729.5 kPa | 7755.5 kPa | 7840.6 kPa | 7895 kPa | 7927.7 kPa
1049 ± 1.3 kg/m3: 10589 kPa | 10624 kPa | 10687 kPa | 10753 kPa
1049.3 ± 1.3 kg/m3: 10961 kPa | 11031 kPa | 11063 kPa | 11101 kPa | 11171 kPa
1047.5 ± 1.3 kg/m3: 8125 kPa | 8147.9 kPa | 8175.2 kPa | 8198.5 kPa | 8297.3 kPa | 8325.9 kPa
1048.3 ± 1.3 kg/m3: 9293.3 kPa | 9315.9 kPa | 9366.4 kPa | 9391.5 kPa | 9469.3 kPa | 9492.3 kPa | 9599.9 kPa | 9652 kPa
